Assay results as given in patent US20160038468A1 (priority 2013, published 2016).
Converted amounts (≈) assume the structure as drawn. Like-named read-outs stand apart in the source and are kept apart here.

How the values were obtained:
Prevotella timonensis = experiment: Agar dilution MIC (CLSI), Prevotella timonensis vaginal isolates; type: cell-based; details: for Number of strains with indicated MIC: 33 samples
vaginal infections = details: daily dosage less than 100 mg/day; cited from earlier work
[1] = test system: Megasphaera-like bacteria; experiment: Agar dilution MIC (CLSI), Megasphaera-like bacteria vaginal isolates; type: cell-based; details: for MIC: read-out: Minimal Inhibitory Concentration (MIC); for Number of strains with indicated MIC: 25 samples
Anaerococcus tetradius = experiment: Agar dilution MIC (CLSI), Anaerococcus tetradius vaginal isolates; type: cell-based; details: for MIC: read-out: Minimal Inhibitory Concentration (MIC); for Number of strains with indicated MIC: 21 samples
Mobiluncus spp = experiment: Agar dilution MIC (CLSI), Mobiluncus spp vaginal isolate; type: cell-based; details: read-out: Minimal Inhibitory Concentration (MIC)
[2] = test system: Clostridium difficile, ATCC 700057; details: agar dilution testing, from CLSI Table 5; cited from earlier work
Lactobacilli = details: pathogens: Gardnerella vaginalis, Mobiluncus spp, Bacteroides bivius-disiens; cited from earlier work
[3] = Anaerococcus tetradius, # tested 21

CO[C@H]1/C=C/O[C@@]2(C)Oc3c(C)c(O)c4c(O)c(c5c(nc6cc(C)ccn65)c4c3C2=O)NC(=O)/C(C)=C\C=C\[C@H](C)[C@H](O)[C@@H](C)[C@@H](O)[C@@H](C)[C@H](OC(C)=O)[C@@H]1C [Rifaximin]
Number of strains with indicated MIC (Prevotella timonensis; MIC 0.03 μg/ml): 2 | Number of strains with indicated MIC (Prevotella timonensis; MIC 0.06 μg/ml): 1 | Susceptible (Prevotella timonensis; number (%) of isolates, # tested 33): 33 (100) μg/ml | efficacy in the treatment of vaginal infections (vaginal infections): efficacious | MIC ([1]; 427510 h, isolate 427507 H): 0.015 µg/mL (≈ 0.0191 µM) | MIC50 ([1]; # tested 25): 0.015 µg/mL (≈ 0.0191 µM) | MIC90 ([1]; # tested 25): 0.015 µg/mL (≈ 0.0191 µM) | MIC Range ([1]; # tested 25): 0.0075 to 0.015 µg/mL | Number of strains with indicated MIC ([1]; MIC 0.0075 μg/ml): 3 | Number of strains with indicated MIC ([1]; MIC 0.015 μg/ml): 22 | MIC ([1]; isolate 426749 T): 0.0075 µg/mL (≈ 0.00954 µM) | MIC ([1]; isolate 426766 Q): 0.015 µg/mL (≈ 0.0191 µM) | MIC ([1]; isolate 426788 8a): 0.015 µg/mL (≈ 0.0191 µM) | MIC ([1]; isolate 426788 C): 0.015 µg/mL (≈ 0.0191 µM) | MIC ([1]; isolate 427470 10): 0.015 µg/mL (≈ 0.0191 µM) | MIC ([1]; isolate 427490 2u): 0.015 µg/mL (≈ 0.0191 µM) | MIC ([1]; isolate 427509 A): 0.015 µg/mL (≈ 0.0191 µM) | MIC ([1]; isolate 427522 8): 0.015 µg/mL (≈ 0.0191 µM) | MIC ([1]; isolate 600770 O): 0.015 µg/mL (≈ 0.0191 µM) | MIC ([1]; isolate 600790 N): 0.015 µg/mL (≈ 0.0191 µM) | MIC ([1]; isolate 600796 V): 0.015 µg/mL (≈ 0.0191 µM) | MIC ([1]; isolate 600831 9): 0.015 µg/mL (≈ 0.0191 µM) | MIC ([1]; isolate 600837 18): 0.015 µg/mL (≈ 0.0191 µM) | MIC ([1]; isolate 600861 P): 0.015 µg/mL (≈ 0.0191 µM) | MIC ([1]; isolate 602236 E3): 0.007 µg/mL (≈ 0.00891 µM) | MIC ([1]; isolate 602241 D): 0.015 µg/mL (≈ 0.0191 µM) | MIC ([1]; isolate 602241 F): 0.015 µg/mL (≈ 0.0191 µM) | MIC ([1]; isolate 602270 A): 0.015 µg/mL (≈ 0.0191 µM) | MIC ([1]; isolate 602282 I): 0.015 µg/mL (≈ 0.0191 µM) | MIC ([1]; isolate 602288 16): 0.015 µg/mL (≈ 0.0191 µM) | MIC ([1]; isolate 602302 22): 0.015 µg/mL (≈ 0.0191 µM) | MIC ([1]; isolate 602305 I): 0.015 µg/mL (≈ 0.0191 µM) | MIC ([1]; isolate 602324 8): 0.0075 µg/mL (≈ 0.00954 µM) | MIC ([1]; isolate 602672 12A): 0.015 µg/mL (≈ 0.0191 µM) | MIC Range (Anaerococcus tetradius; # tested 21): 0.00375 to 0.125 µg/mL | MIC (Anaerococcus tetradius; Anaerococcus tetradius, isolate 601098V T): 0.06 µg/mL (≈ 0.0763 µM) | MIC (Anaerococcus tetradius; Anaerococcus tetradius, isolate 601103V 21): 0.06 µg/mL (≈ 0.0763 µM) | MIC (Anaerococcus tetradius; Anaerococcus tetradius, isolate 601175V I): 0.125 µg/mL (≈ 0.159 µM) | MIC (Anaerococcus tetradius; Anaerococcus tetradius, isolate 601202V 11): 0.06 µg/mL (≈ 0.0763 µM) | MIC (Anaerococcus tetradius; Anaerococcus tetradius, isolate 601212V 14): 0.06 µg/mL (≈ 0.0763 µM) | MIC (Anaerococcus tetradius; Anaerococcus tetradius, isolate 601221V 12): 0.00375 µg/mL (≈ 0.00477 µM) | MIC (Anaerococcus tetradius; Anaerococcus tetradius, isolate 601222V 15): 0.06 µg/mL (≈ 0.0763 µM) | MIC (Anaerococcus tetradius; Anaerococcus tetradius, isolate 601242V 17): 0.06 µg/mL (≈ 0.0763 µM) | MIC (Anaerococcus tetradius; Anaerococcus tetradius, isolate 601256V 9): 0.06 µg/mL (≈ 0.0763 µM) | MIC (Anaerococcus tetradius; Anaerococcus tetradius, isolate 601287V V): 0.06 µg/mL (≈ 0.0763 µM) | MIC (Anaerococcus tetradius; Anaerococcus tetradius, isolate 601305V J): 0.015 µg/mL (≈ 0.0191 µM) | MIC (Anaerococcus tetradius; Anaerococcus tetradius, isolate 601326V H): 0.06 µg/mL (≈ 0.0763 µM) | MIC (Anaerococcus tetradius; Anaerococcus tetradius, isolate 601340V 25): 0.06 µg/mL (≈ 0.0763 µM) | MIC (Anaerococcus tetradius; Anaerococcus tetradius, isolate 601342V N): 0.06 µg/mL (≈ 0.0763 µM) | MIC (Anaerococcus tetradius; Anaerococcus tetradius, isolate 601368V 42): 0.06 µg/mL (≈ 0.0763 µM) | MIC (Anaerococcus tetradius; Anaerococcus tetradius, isolate 601369V 12): 0.03 µg/mL (≈ 0.0382 µM) | MIC (Anaerococcus tetradius; Anaerococcus tetradius, isolate 601379V 25): 0.06 µg/mL (≈ 0.0763 µM) | MIC (Anaerococcus tetradius; Anaerococcus tetradius, isolate 601401V T): 0.06 µg/mL (≈ 0.0763 µM) | MIC (Anaerococcus tetradius; Anaerococcus tetradius, isolate 601429V 15): 0.015 µg/mL (≈ 0.0191 µM) | MIC (Anaerococcus tetradius; Anaerococcus tetradius, isolate 601450V 22): 0.06 µg/mL (≈ 0.0763 µM) | MIC (Anaerococcus tetradius; Anaerococcus tetradius, isolate 602375V 22): 0.015 µg/mL (≈ 0.0191 µM) | MIC50 (Anaerococcus tetradius; [3]): 0.06 µg/mL (≈ 0.0763 µM) | MIC90 (Anaerococcus tetradius; [3]): 0.06 µg/mL (≈ 0.0763 µM) | Number of strains with indicated MIC (Anaerococcus tetradius; MIC 0.00375 μg/ml): 1 | Number of strains with indicated MIC (Anaerococcus tetradius; MIC 0.015 μg/ml): 3 | Number of strains with indicated MIC (Anaerococcus tetradius; MIC 0.03 μg/ml): 1 | Number of strains with indicated MIC (Anaerococcus tetradius; MIC 0.06 μg/ml): 15 | Number of strains with indicated MIC (Anaerococcus tetradius; MIC […]): 1 | MIC (Mobiluncus spp): 0.03 µg/mL (≈ 0.0382 µM) | Acceptable Range of MIC for control strain [2]: 0.0039 to 0.0156 µg/mL | inhibitory action (MIC50 and MIC90) against Lactobacilli compared with action against pathogenic bacteria (Lactobacilli): equal to, or even higher than
